Reference: publication PMC5324060, “Evolutionary, computational, and biochemical studies of the salicylaldehyde dehydrogenases in the naphthalene degradation pathway” (Scientific Reports, 2017)

Tests used:
Format in all cases: biochemical
SALDan N149A = molecular target: T1, SALDan N149A (Alteromonas naphthalenivorans, UniProt F5Z5S7, N149A); assay: Kinetics assay of SALDan mutant N149A
T1 sequence (F5Z5S7 1-483 N149A): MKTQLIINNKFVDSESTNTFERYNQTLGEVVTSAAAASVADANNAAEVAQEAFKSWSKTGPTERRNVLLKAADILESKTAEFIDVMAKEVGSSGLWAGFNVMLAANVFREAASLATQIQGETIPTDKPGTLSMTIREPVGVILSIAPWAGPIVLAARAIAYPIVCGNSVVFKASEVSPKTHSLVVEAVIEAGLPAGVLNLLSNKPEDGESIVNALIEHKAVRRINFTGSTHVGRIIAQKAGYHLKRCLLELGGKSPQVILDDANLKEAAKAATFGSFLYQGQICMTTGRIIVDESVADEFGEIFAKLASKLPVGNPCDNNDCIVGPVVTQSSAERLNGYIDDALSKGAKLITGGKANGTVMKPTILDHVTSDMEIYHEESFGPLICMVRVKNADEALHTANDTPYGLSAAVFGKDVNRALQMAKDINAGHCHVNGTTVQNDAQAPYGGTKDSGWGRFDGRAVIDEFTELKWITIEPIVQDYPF
Excerpt: The primers used for the single amino acid mutant were as follows: N149A, forward primer, 5′-ATAGCACCGTGGGCCGGGCCTATTGTATTA-3′; reverse primer, 5′-TAATACAATAGGCCCGGCCCACGGTGCTAT-3′; V153A, forward primer, 5′-AATGGGCCTATTGTATTAGCGGCTCGG-3′; reverse primer, 5′-CCGAGCCGCTAATACAATAGGCCCATT-3′; E175A, forward primer, 5′-[…]-3′, reverse primer, 5′-GTTGGGACAGTCTTCCAGCCC-3′; E175A, forward primer, 5′-ATGCTCCACCAAATTGGGCAC-3′; reverse primer, 5′-TTTAGGACTTACTTCTGAAGCTTTAAA-3′. The PCR was performed using Pfu polymerase, and the cycling parameters were: 95 °C for 5 min (one cycle), 95 °C for 30 s, and 68 °C for 12 min (12 cycles). […]
(§1) The activity of the purified proteins was determined using SAL as a substrate. […] The SALDan activity was monitored as the rate of appearance of NADH at 340 nm spectrophotometrically. The specific activity of the enzyme (units.mg^−1.min^−1) was expressed as the amount of enzyme required to produce 1 μM of NADH under the assay conditions. The influence of pH on the activity was determined using the protocol described above, with the exception of replacing the Tris-HCl buffer with 50 mM sodium acetate (pH 3.0–5.0), 50 mM 2-(N-morpholino)ethanesulfonic acid (pH 5.0–7.5), 50 mM HEPES (pH 8.0–8.5), 50 mM glycine (pH 9.0–10.0), or 50 mM sodium phosphate (pH 11.0)[52]. […]

SALDan = SALDan (Alteromonas naphthalenivorans, UniProt F5Z5S7); assay: Kinetics assay of wild-type recombinant SALDan (NADH appearance at 340 nm)
Chain of SALDan (F5Z5S7 entry or part of it): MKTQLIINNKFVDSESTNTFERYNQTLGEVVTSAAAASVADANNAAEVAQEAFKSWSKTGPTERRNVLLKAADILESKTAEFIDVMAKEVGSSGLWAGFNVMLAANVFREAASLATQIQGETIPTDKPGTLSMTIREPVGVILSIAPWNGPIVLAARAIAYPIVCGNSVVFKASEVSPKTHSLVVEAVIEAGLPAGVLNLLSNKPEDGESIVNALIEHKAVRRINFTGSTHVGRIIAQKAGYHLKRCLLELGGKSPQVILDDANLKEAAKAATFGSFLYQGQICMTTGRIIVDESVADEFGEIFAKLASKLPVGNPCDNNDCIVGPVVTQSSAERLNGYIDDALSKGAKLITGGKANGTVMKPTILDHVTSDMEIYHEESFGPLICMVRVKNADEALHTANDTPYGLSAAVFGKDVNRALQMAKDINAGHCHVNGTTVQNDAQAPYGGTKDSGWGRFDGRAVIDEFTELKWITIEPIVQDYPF
Protocol: (§2) The activity of the purified proteins was determined using SAL as a substrate. A reaction volume of 500 μL was prepared in a microfuge tube containing purified SALDan (0.1 μM), SAL (100 μM), and NAD^+ (100 μM) dissolved in 50 mM HEPES (pH 7.5) containing 150 mM NaCl. The SALDan activity was monitored as the rate of appearance of NADH at 340 nm spectrophotometrically. The specific activity of the enzyme (units.mg^−1.min^−1) was expressed as the amount of enzyme required to produce 1 μM of NADH under the assay conditions. The influence of pH on the activity was determined using the protocol described above, with the exception of replacing the […] buffer with 50 mM sodium acetate (pH 3.0–5.0), 50 mM 2-(N-morpholino)ethanesulfonic acid (pH 5.0–7.5), 50 mM HEPES (pH 8.0–8.5), 50 mM glycine (pH 9.0–10.0), or 50 mM sodium phosphate (pH 11.0)[52]. All assays were performed at the optimal temperature. To determine the influence of temperature on the enzymatic activity, the reactions were performed at 15, 20, 25, 30, 35, 40, and 45 °C, respectively.
(§3) For kinetic studies of aldehydes, the initial velocities of the enzymatic reactions were examined by varying the concentrations of various aromatic as well as aliphatic aldehydes in the presence of NAD^+ (100 μM) and the enzyme (0.1 μM) under optimal conditions. For substrates that absorb at 340 nm, thus interfering with the calculation of the initial rate, their molar coefficients (ε) were calculated as described previously[64] and are presented in Table S1. The apparent kinetic parameters were calculated using the equation: […]
(§4) The apparent kinetic parameters for NAD^+ were determined at a fixed concentration of SAL (50 μM) and a varying concentration of NAD^+ (0–500 μM). The apparent Km and Vmax values were calculated by using the equation: […]
(§5) All the activity data were determined by three separate experiments with at least three technical replicates.

SALDan V153A = molecular target: T2, SALDan V153A (Alteromonas naphthalenivorans, UniProt F5Z5S7, V153A); assay: Kinetics assay of SALDan mutant V153A
T2 sequence (F5Z5S7 1-483 V153A): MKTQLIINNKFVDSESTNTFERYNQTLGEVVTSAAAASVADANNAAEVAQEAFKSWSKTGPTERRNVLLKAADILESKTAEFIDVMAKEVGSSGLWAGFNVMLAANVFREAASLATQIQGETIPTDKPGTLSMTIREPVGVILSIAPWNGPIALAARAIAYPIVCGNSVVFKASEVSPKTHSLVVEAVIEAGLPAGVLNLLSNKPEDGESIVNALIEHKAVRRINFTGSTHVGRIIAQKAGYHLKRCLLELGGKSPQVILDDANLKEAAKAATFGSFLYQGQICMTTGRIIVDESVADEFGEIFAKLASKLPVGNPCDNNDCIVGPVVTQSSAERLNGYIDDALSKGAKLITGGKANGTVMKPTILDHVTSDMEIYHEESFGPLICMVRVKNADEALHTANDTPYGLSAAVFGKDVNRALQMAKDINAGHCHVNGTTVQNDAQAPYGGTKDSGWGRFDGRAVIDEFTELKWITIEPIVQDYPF
Excerpt: (§6) The primers used for the single amino acid mutant were as follows: N149A, forward primer, 5′-ATAGCACCGTGGGCCGGGCCTATTGTATTA-3′; reverse primer, 5′-TAATACAATAGGCCCGGCCCACGGTGCTAT-3′; V153A, forward primer, 5′-AATGGGCCTATTGTATTAGCGGCTCGG-3′; reverse primer, 5′-CCGAGCCGCTAATACAATAGGCCCATT-3′; E175A, forward primer, 5′-[…]-3′, reverse primer, 5′-GTTGGGACAGTCTTCCAGCCC-3′; E175A, forward primer, 5′-ATGCTCCACCAAATTGGGCAC-3′; reverse primer, 5′-TTTAGGACTTACTTCTGAAGCTTTAAA-3′. The PCR was performed using Pfu polymerase, and the cycling parameters were: 95 °C for 5 min (one cycle), 95 °C for 30 s, and 68 °C for 12 min (12 cycles). After amplification, the PCR mixture was digested with DpnI and then transformed into E. coli BL21(DE3) by electroporation. The mutants were confirmed by DNA sequencing.
as §1, §3

SALDan E175A = molecular target: T3, SALDan E175A (Alteromonas naphthalenivorans, UniProt F5Z5S7, E175A); assay: Kinetics assay of SALDan mutant E175A
T3 sequence (F5Z5S7 1-483 E175A): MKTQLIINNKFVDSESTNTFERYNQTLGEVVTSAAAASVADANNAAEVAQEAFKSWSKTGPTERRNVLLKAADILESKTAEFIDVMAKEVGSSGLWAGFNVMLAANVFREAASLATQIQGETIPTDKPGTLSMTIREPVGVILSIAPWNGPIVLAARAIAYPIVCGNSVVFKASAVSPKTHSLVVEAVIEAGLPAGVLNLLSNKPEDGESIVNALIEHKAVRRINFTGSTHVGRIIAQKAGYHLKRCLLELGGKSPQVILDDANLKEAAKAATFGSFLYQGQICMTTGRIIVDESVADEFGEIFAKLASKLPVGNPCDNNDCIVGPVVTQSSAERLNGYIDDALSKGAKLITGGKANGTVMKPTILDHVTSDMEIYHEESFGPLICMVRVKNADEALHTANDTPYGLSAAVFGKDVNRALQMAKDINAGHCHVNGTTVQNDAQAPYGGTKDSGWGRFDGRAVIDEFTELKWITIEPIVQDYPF
Excerpt: as §6, §2, §3, §4, §5

In the case of `O=Cc1ccccc1O` [Salicylaldehyde], the Ki (SALDan N149A) is reported as 447 ± 52.6 µM, the “change of catalytic efficiency compared with the wild-type protein” value (SALDan N149A; N149A mutant) is reported as “decreased by about three times” and the Ki (SALDan) is reported as 379 ± 45.2 µM. The “activity relative to the maximal velocity” value (SALDan; wild-type, assayed at 200 μM substrate, substrate inhibition) was “approximately 80%”, the “substrate concentration at which the highest velocity is achieved” value (SALDan; wild-type, velocity versus substrate plot) was 40 µM and the Ki (SALDan V153A) was 428 ± 49.4 µM. The “effect on the kinetic parameters” value (SALDan V153A; V153A mutant versus wild-type) was “no significant effect”, the Ki (SALDan E175A) was 462 ± 51.4 µM and the “change of apparent Km value” (SALDan E175A; E175A mutant versus wild-type) was “increased”. For the same compound, the “change of kcat/Km (catalytic efficiency)” value (SALDan E175A; E175A mutant versus wild-type) was “decreased by six times”.
